Results from ChEMBL document CHEMBL5244223, “l,8-Naphthalimide based DNA intercalators and anticancer agents. A systematic review from 2007 to 2017” (Eur J Med Chem, 2018).
Values after ≈ are worked out from the molar mass of the structure shown.

Key:
HeLa [1] = assay: Cytotoxicity against human HeLa cells assessed as inhibition of cell growth incubated for 48 hrs by MTT assay; assay type: functional, cell-based
K562 = assay: Cytotoxicity against human K562 cells assessed as inhibition of cell growth incubated for 48 hrs by MTT assay; assay type: functional, cell-based; conditions: K562, 48 h
A549 = assay: Cytotoxicity against human A549 cells assessed as inhibition of cell growth incubated for 48 hrs by MTT assay; assay type: functional, cell-based; conditions: A549, 48 h
[2] = tested on: Staphylococcus epidermidis; assay: Antibacterial activity against Staphylococcus epidermidis MTCC 435 assessed as inhibition of bacterial growth by agar well diffusion assay; assay type: functional
Calf thymus DNA = assay: Binding affinity to calf thymus DNA assessed as DNA intercalation by measuring change in melting temperature by thermal denaturation assay; assay type: nucleic-acid assay; conditions: Bos taurus
Pseudomonas aeruginosa = assay: Antibacterial activity against Pseudomonas aeruginosa MTCC 741 assessed as inhibition of bacterial growth by agar well diffusion assay; assay type: functional
Escherichia coli = assay: Antibacterial activity against Escherichia coli MTCC 443 assessed as inhibition of bacterial growth by agar well diffusion assay; assay type: functional
Staphylococcus aureus = assay: Antibacterial activity against Staphylococcus aureus MTCC 96 assessed as inhibition of bacterial growth by agar well diffusion assay; assay type: functional
[3] = Antiproliferative activity against human HMEC-1 cells assessed as inhibition of cell proliferation incubated for 48 hrs by coulter counter assay; assay type: toxicity, cell-based
CCRF-CEM = assay: Antiproliferative activity against human CEM cells assessed as inhibition of cell proliferation incubated for 48 hrs by coulter counter assay; assay type: functional, cell-based
L1210 = assay: Antiproliferative activity against mouse L1210 cells assessed as inhibition of cell proliferation incubated for 48 hrs by coulter counter assay; assay type: functional, cell-based; conditions: L1210, 48 h
HeLa [4] = assay: Antiproliferative activity against human HeLa cells assessed as inhibition of cell proliferation incubated for 48 hrs by coulter counter assay; assay type: functional, cell-based

| Compound | IC50 (HeLa [1]) [µM] | IC50 (K562) [µM] | IC50 (A549) [µM] | MIC [2] [µg/mL] | ΔTm (Calf thymus DNA) [°C] | MIC (Pseudomonas aeruginosa) [µg/mL] | MIC (Escherichia coli) [µg/mL] | MIC (Staphylococcus aureus) [µg/mL] | IC50 at 48 h [3] [µM] | IC50 (CCRF-CEM) [µM] | IC50 (L1210) [µM] | IC50 (HeLa [4]) [µM] |
| --- | --- | --- | --- | --- | --- | --- | --- | --- | --- | --- | --- | --- |
| CN(C)CCN1C(=O)c2cccc3cc(NC(=O)CN)cc(c23)C1=O | 21.5 | 8.5 | 4.7 | – | – | – | – | – | – | – | – | – |
| O=C1c2cccc3cccc(c23)C(=O)N1c1nc(-c2cc3cc(Br)ccc3oc2=O)cs1 | – | – | – | 18.8 (≈ 37.3 µM) | 0.1 | 18.8 (≈ 37.3 µM) | 18.8 (≈ 37.3 µM) | 18.8 (≈ 37.3 µM) | – | – | – | – |
| CCOP(=O)(CC(=O)NCn1cc(CN2C(=O)c3cccc4cccc(c34)C2=O)nn1)OCC | – | – | – | – | – | – | – | – | > 250 | > 250 | > 250 | > 250 |
| CCOP(=O)(CCOCCn1cc(CN2C(=O)c3cccc4c(Br)ccc(c34)C2=O)nn1)OCC | – | – | – | – | – | – | – | – | > 250 | > 250 | > 250 | > 250 |
| O=C1c2ccc3c4c(ccc(c24)C(=O)N1c1nc(-c2cc4cc(Cl)ccc4oc2=O)cs1)C(=O)N(c1nc(-c2cc4cc(Cl)ccc4oc2=O)cs1)C3=O | – | – | – | 18.8 (≈ 23.7 µM) | 24.3 | 18.8 (≈ 23.7 µM) | 18.8 (≈ 23.7 µM) | 18.8 (≈ 23.7 µM) | – | – | – | – |
| O=C1c2ccc3c4c(ccc(c24)C(=O)N1c1nc(-c2cc4cc(Br)ccc4oc2=O)cs1)C(=O)N(c1nc(-c2cc4cc(Br)ccc4oc2=O)cs1)C3=O | – | – | – | 18.8 (≈ 21.3 µM) | 0.1 | 18.8 (≈ 21.3 µM) | 18.8 (≈ 21.3 µM) | 18.8 (≈ 21.3 µM) | – | – | – | – |
| CCOP(=O)(CCCn1cc(CN2C(=O)c3cccc4cc([N+](=O)[O-])cc(c34)C2=O)nn1)OCC | – | – | – | – | – | – | – | – | > 250 | > 250 | > 250 | > 250 |
| CCOP(=O)(CCCn1cc(CN2C(=O)c3cccc4cccc(c34)C2=O)nn1)OCC | – | – | – | – | – | – | – | – | > 250 | > 250 | > 250 | > 250 |
| COc1cccc2cc(-c3csc(N4C(=O)c5cccc6cccc(c56)C4=O)n3)c(=O)oc12 | – | – | – | 18.8 (≈ 41.3 µM) | 0.1 | 18.8 (≈ 41.3 µM) | 18.8 (≈ 41.3 µM) | 18.8 (≈ 41.3 µM) | – | – | – | – |
| CCOP(=O)(CCCCn1cc(CN2C(=O)c3cccc4c(Br)ccc(c34)C2=O)nn1)OCC | – | – | – | – | – | – | – | – | > 250 | > 250 | > 250 | > 250 |
| CCOP(=O)(CC(O)Cn1cc(CN2C(=O)c3cccc4cccc(c34)C2=O)nn1)OCC (stereo not drawn) | – | – | – | – | – | – | – | – | > 250 | > 250 | > 250 | > 250 |
| CCOP(=O)(CCOCn1cc(CN2C(=O)c3cccc4cc([N+](=O)[O-])cc(c34)C2=O)nn1)OCC | – | – | – | – | – | – | – | – | > 250 | > 250 | > 250 | > 250 |
| CN(C)CCN1C(=O)c2cccc3cc(NC(=O)CCN)cc(c23)C1=O | 21.5 | 8.5 | 4.7 | – | – | – | – | – | – | – | – | – |
| CCOP(=O)(CC(=O)NCn1cc(CN2C(=O)c3cccc4cc([N+](=O)[O-])cc(c34)C2=O)nn1)OCC | – | – | – | – | – | – | – | – | > 250 | > 250 | > 250 | > 250 |
| O=C1c2cccc3cccc(c23)C(=O)N1c1nc(-c2cc3cc(Cl)ccc3oc2=O)cs1 | – | – | – | 18.8 (≈ 40.9 µM) | 0.1 | 18.8 (≈ 40.9 µM) | 18.8 (≈ 40.9 µM) | 18.8 (≈ 40.9 µM) | – | – | – | – |
| O=C1c2cccc3cccc(c23)C(=O)N1c1nc(-c2cc3cc(Br)cc(Br)c3oc2=O)cs1 | – | – | – | 18.8 (≈ 32.2 µM) | 0.1 | 18.8 (≈ 32.2 µM) | 18.8 (≈ 32.2 µM) | 18.8 (≈ 32.2 µM) | – | – | – | – |
| O=C1c2cccc3cccc(c23)C(=O)N1c1nc(-c2cc3ccccc3oc2=O)cs1 | – | – | – | 18.8 (≈ 44.2 µM) | 0.1 | 18.8 (≈ 44.2 µM) | 18.8 (≈ 44.2 µM) | 18.8 (≈ 44.2 µM) | – | – | – | – |
| CCOP(=O)(Cn1cc(CN2C(=O)c3cccc4c(Br)ccc(c34)C2=O)nn1)OCC | – | – | – | – | – | – | – | – | > 250 | > 250 | > 250 | > 250 |
| CCOP(=O)(CCOCCn1cc(CN2C(=O)c3cccc4cccc(c34)C2=O)nn1)OCC | – | – | – | – | – | – | – | – | > 250 | > 250 | > 250 | > 250 |
| O=C(O)c1cn(C2CC2)c2cc(N3CCNCC3)c(F)cc2c1=O [CIPROFLOXACIN] | – | – | – | 18.8 (≈ 56.6 µM) | – | 18.8 (≈ 56.6 µM) | 18.8 (≈ 56.6 µM) | 18.8 (≈ 56.6 µM) | – | – | – | – |
| CCOP(=O)(Cn1cc(CN2C(=O)c3cccc4cccc(c34)C2=O)nn1)OCC | – | – | – | – | – | – | – | – | > 250 | > 250 | > 250 | > 250 |
| CCOP(=O)(Cn1cc(CN2C(=O)c3cccc4cc([N+](=O)[O-])cc(c34)C2=O)nn1)OCC | – | – | – | – | – | – | – | – | > 250 | > 250 | > 250 | > 250 |
